From paper PMC4725965, “Comprehensive Structural Characterization of the Bacterial Homospermidine Synthase–an Essential Enzyme of the Polyamine Metabolism” (Scientific Reports, 2016) come the findings set out here.

The target of assay [1] is T1, BvHSS (Blastochloris viridis, UniProt O32323).
T1 construct: gene hss; full-length BvHSS from pETM14, E. coli BL21 (DE3); N-terminal 6xHis-tag cut with HRV3C protease; homodimer; active site within one subunit; domains cover residues 3-477; first four amino acids not traced
T1 sequence (O32323 1-477): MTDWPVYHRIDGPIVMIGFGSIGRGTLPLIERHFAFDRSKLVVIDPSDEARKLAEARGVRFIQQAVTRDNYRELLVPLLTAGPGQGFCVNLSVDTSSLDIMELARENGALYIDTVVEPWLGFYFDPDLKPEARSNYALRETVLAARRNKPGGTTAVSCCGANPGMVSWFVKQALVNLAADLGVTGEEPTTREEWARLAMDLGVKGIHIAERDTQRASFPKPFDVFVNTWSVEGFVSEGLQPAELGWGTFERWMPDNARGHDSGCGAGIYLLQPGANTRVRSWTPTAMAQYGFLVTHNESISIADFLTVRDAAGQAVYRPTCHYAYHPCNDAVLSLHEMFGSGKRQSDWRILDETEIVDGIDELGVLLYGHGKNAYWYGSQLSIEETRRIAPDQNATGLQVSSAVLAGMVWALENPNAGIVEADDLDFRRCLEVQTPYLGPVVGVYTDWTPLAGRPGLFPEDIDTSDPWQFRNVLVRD
As to the kind of experiment: X-ray crystallography. In kind it is binding.

Assay [2] addresses T2, BvHSS (Blastochloris viridis, UniProt O32323, E237Q).
T2 construct: gene hss; full-length BvHSS from pETM14, E. coli BL21 (DE3); N-terminal 6xHis-tag cut with HRV3C protease; homodimer; active site within one subunit; domains cover residues 3-477; first four amino acids not traced
As to the kind of experiment: X-ray crystallography. In kind it is binding. As to conditions: co-crystal with 0.2 M AGM and 0.2 M PUT; no polyamine in active site; pH 4.6.

Assay [3] has as its target T3, BvHSS (Blastochloris viridis, UniProt O32323, H296S).
T3 construct: gene hss; full-length BvHSS from pETM14, E. coli BL21 (DE3); N-terminal 6xHis-tag cut with HRV3C protease; homodimer; active site within one subunit; domains cover residues 3-477; first four amino acids not traced
As to the kind of experiment: X-ray crystallography. In kind it is binding. As to conditions: pH 4.6.

In assay [4] the target is T1, BvHSS. As to the kind of experiment: X-ray crystallography. In kind it is biochemical. To be noted: DAP co-crystal soaked 300 s with 0.2 M PUT; product formed in crystal; pH 4.8; active site, subunit A; transition-close state with partial Schiff base, modelled as 37Z.
Assay [5] concerns the target Blastochloris viridis homospermidine synthase (Blastochloris viridis) (UniProt O32323). As to the kind of experiment: crystal structure; hanging-drop vapour diffusion at 18 °C, reservoir 100 mM sodium acetate pH 4.6-4.8; NAD+ bound, with or without polyamines; two subunits (A and B) in the asymmetric unit.

What is called stoichiometry N is a count of units in the complex or per binding partner.

T3 sequence (O32323 whole entry H296S, the tested form may be a part): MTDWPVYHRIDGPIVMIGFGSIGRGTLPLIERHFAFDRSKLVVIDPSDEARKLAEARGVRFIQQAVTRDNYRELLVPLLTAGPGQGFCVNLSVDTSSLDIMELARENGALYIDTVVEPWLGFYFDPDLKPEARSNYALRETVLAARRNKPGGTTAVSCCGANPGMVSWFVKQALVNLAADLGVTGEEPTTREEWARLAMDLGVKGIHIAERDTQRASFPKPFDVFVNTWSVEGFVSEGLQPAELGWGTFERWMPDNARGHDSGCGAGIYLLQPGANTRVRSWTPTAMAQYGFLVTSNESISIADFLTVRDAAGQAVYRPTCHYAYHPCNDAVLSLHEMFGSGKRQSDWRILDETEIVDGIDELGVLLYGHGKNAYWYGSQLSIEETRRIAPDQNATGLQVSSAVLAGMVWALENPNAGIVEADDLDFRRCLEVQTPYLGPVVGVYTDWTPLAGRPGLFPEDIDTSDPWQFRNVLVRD
T2 sequence (O32323 whole entry E237Q, the tested form may be a part): as the sequence (O32323 whole entry H296S, the tested form may be a part) above, with E237Q, S296H counted along it

On to `NCCCN` [1,3-diaminopropane], for which the X-ray crystallography result on BvHSS [1] (co-crystal with 0.2 M DAP and 0.2 M PUT, NAD+ bound, pH 4.6, active site, second DAP at the ionic slide (pocket entrance), Table 3 misprints the PDB id as 4XQE) is “Two DAP molecules were found at two different positions in subunit A (PDB ID: 4XQC)”.

Consider `NC(=O)c1ccc[n+]([C@@H]2O[C@H](COP(=O)(O)OP(=O)(O)OC[C@H]3O[C@@H](n4cnc5c(N)ncnc54)[C@H](O)[C@@H]3O)[C@@H](O)[C@H]2O)c1` [NAD^+], for which the X-ray crystallography entry is “BvHSS and BvHSS variants with bound NAD^+ in complex with various polyamines” on BvHSS [2]; “with bound NAD^+ (Protein Data Bank [PDB] ID: 4PLP)” at BvHSS [1] (no polyamine, pH 4.6, non-covalently bound prosthetic group); “BvHSS and BvHSS variants with bound NAD^+ in complex with various polyamines” at BvHSS [3] (co-crystal with 0.2 M AGM).

Turning to `N=C(N)NCCCCN` [agmatine], the X-ray crystallography entry on BvHSS [3] (co-crystal with 0.2 M AGM, NAD+ bound, active site) was “the variant H296S was found to bind AGM within the active site”.

For `NCCCCN` [putrescine], the X-ray crystallography entry was “The active site of BvHSS with bound PUT (PDB ID: 4TVB, subunit B)” at BvHSS [1] (DAP co-crystal soaked 300 s with 0.2 M PUT, NAD+ bound, pH 4.8, inner binding site, subunit B, transition-close state) and “partial replacement of AGM with PUT (Fig. 6f)” on BvHSS [3] (AGM co-crystal soaked 300 s with 0.2 M PUT, NAD+ bound, active site, partial occupancy beside AGM, enzymatically inactive variant).

In the case of `NCCCCNCCCCN` [sym-homospermidine, bis(4-aminobutyl)amine], the X-ray crystallography entry on BvHSS [4] is on record as “transition close state of the reduction to HSP bound in subunit A”.

Regarding “Blastochloris viridis homospermidine synthase (from UniProt O32323 1-477) (enzyme)”, the stoichiometry N in assay [5] amounted to 2.
